According to US20110105326A1, “Method for Enhancing the Rainfastness of Glyphosate” (BASF SE, priority 2008, published 2011):

Columns and labels:
Assay type in all cases: in vivo
[1] = tested on: Echinochloa colonum (ECHCO); assay: herbicidal action with/without simulated rainfall after treatment, Echinochloa colonum; parameters: key: % damage vs untreated control; 0 = no damage, 100 = complete destruction; conditions: 180 g/ha lactofen, 1080 g/ha glyphosate; for herbicidal action against Echinochloa colonum (ECHCO): control without simulated rainfall, Example 12.1
Protocol: (§1) The enhancement of the rainfastness of glyphosate was determined via the herbicidal activity of the mixture comprising glyphosate and the respective rainfastness enhancing herbicidal component B as well as of the single herbicidal components in relation to simulated rainfall at different time intervals.
(§2) The evaluation of the damage caused by the method and the compositions the according to the present invention and the single herbicidal components was carried out using a scale from 0 to 100%, compared to the untreated control plots. Here, 0 means no damage and 100 means complete destruction of the plants of a respective weed or crop species.
(§3) The application was performed with a fixed spayer system with air pressurization and with a tank spray volume of two liters. The speed of the spray device over the plants was adjusted for a spray volume of 200 I/ha. The spray device was a spray barr with four nozzles from the type Teejet XR 11002VS with a space of 50 cm between each nozzle.
(§4) The application was performed at a weed stage of 6 to 8 leaves. After the application of the formulated herbicides the leaves were washed through rain of 20 mm using a fixed rain simulator system at following time interval: 15 min, 30 min, 1, 2, 3, 4 and 6 hours after treatment.

[2] = tested on: Brachiaria decumbens (BRADE); assay: herbicidal action with/without simulated rainfall after treatment, Brachiaria decumbens; parameters: key: % damage vs untreated control; 0 = no damage, 100 = complete destruction; conditions: 180 g/ha lactofen, 1080 g/ha glyphosate; for herbicidal action against Brachiaria decumbens (BRADE): control without simulated rainfall, Example 14.1; for herbicidal action aaainst BRADE: simulated rainfall 30 min after treatment, Example 14.2; for herbicidal action against BRADE: simulated rainfall 6 hours after treatment, Example 14.3
Protocol: as §1, §2, §3, §4

[3] = tested on: Euphorbia heterophylla (EUPHO); assay: herbicidal action with/without simulated rainfall after treatment, Euphorbia heterophylla; parameters: key: % damage vs untreated control: 0 = no damage, 100 = complete destruction; conditions: 180 g/ha lactofen, 1080 g/ha glyphosate; for herbicidal action against Euphorbia heterophylla (EUPHO): control without simulated rainfall, Example 13.1
Protocol: as §1, §2, §3, §4

Compound: CCOC(=O)C(C)OC(=O)c1cc(Oc2ccc(C(F)(F)F)cc2Cl)ccc1[N+](=O)[O-] (stereo not drawn) [Lactofen, lactofen]
- herbicidal action against Echinochloa colonum (ECHCO) ([1]; 2 DAA): 61.66
- herbicidal action against Echinochloa colonum (ECHCO) ([1]; 3 DAA): 76.66
- herbicidal action against Echinochloa colonum (ECHCO) ([1]; 7 DAA): 75.33
- herbicidal action against ECHCO ([1]; simulated rainfall 15 min after treatment, 2 DAA, Example 12.2): 46.66
- herbicidal action against ECHCO ([1]; simulated rainfall 15 min after treatment, 3 DAA, Example 12.2): 57.66
- herbicidal action against ECHCO ([1]; simulated rainfall 15 min after treatment, 7 DAA, Example 12.2): 46.33
- herbicidal action against ECHCO ([1]; simulated rainfall 30 min after treatment, 2 DAA, Example 12.3): 53
- herbicidal action against ECHCO ([1]; simulated rainfall 30 min after treatment, 3 DAA, Example 12.3): 60
- herbicidal action against ECHCO ([1]; simulated rainfall 30 min after treatment, 7 DAA, Example 12.3): 46
- herbicidal action against ECHCO ([1]; simulated rainfall 2 hours after treatment, 2 DAA, Example 12.4): 48.33
- herbicidal action against ECHCO ([1]; simulated rainfall 2 hours after treatment, 3 DAA, Example 12.4): 63.33
- herbicidal action against ECHCO ([1]; simulated rainfall 2 hours after treatment, 7 DAA, Example 12.4): 39.33
- herbicidal action against Brachiaria decumbens (BRADE) ([2]; 1 DAA): 5
- herbicidal action against Brachiaria decumbens (BRADE) ([2]; 2 DAA): 9
- herbicidal action against Brachiaria decumbens (BRADE) ([2]; 3 DAA): 8.66
- herbicidal action against Brachiaria decumbens (BRADE) ([2]; 7 DAA): 14
- herbicidal action aaainst BRADE ([2]; 1 DAA): 5
- herbicidal action aaainst BRADE ([2]; 2 DAA): 18.33
- herbicidal action aaainst BRADE ([2]; 3 DAA): 24.66
- herbicidal action aaainst BRADE ([2]; 7 DAA): 26
- herbicidal action against BRADE ([2]; 1 DAA): 9.66
- herbicidal action against BRADE ([2]; 2 DAA): 16
- herbicidal action against BRADE ([2]; 3 DAA): 22.66
- herbicidal action against BRADE ([2]; 7 DAA): 25.33
- herbicidal action against Euphorbia heterophylla (EUPHO) ([3]; 1 DAA): 9.66
- herbicidal action against Euphorbia heterophylla (EUPHO) ([3]; 2 DAA): 19
- herbicidal action against Euphorbia heterophylla (EUPHO) ([3]; 3 DAA): 37
- herbicidal action against Euphorbia heterophylla (EUPHO) ([3]; 7 DAA): 47
- herbicidal action against EUPHO ([3]; simulated rainfall 15 min after treatment, 1 DAA, Example 13.2): 20.66
- herbicidal action against EUPHO ([3]; simulated rainfall 15 min after treatment, 2 DAA, Example 13.2): 39
- herbicidal action against EUPHO ([3]; simulated rainfall 15 min after treatment, 3 DAA, Example 13.2): 40
- herbicidal action against EUPHO ([3]; simulated rainfall 15 min after treatment, 7 DAA, Example 13.2): 74.33
- herbicidal action against EUPHO ([3]; simulated rainfall 2 hours after treatment, 1 DAA, Example 13.3): 18
- herbicidal action against EUPHO ([3]; simulated rainfall 2 hours after treatment, 2 DAA, Example 13.3): 42
- herbicidal action against EUPHO ([3]; simulated rainfall 2 hours after treatment, 3 DAA, Example 13.3): 39
- herbicidal action against EUPHO ([3]; simulated rainfall 2 hours after treatment, 7 DAA, Example 13.3): 73.33
